Molecules are shown by their SMILES. Where two headings read alike, the source gives them in different places.

Test [1] concerns Pseudomonas aeruginosa (PSAE). Kind of test: MADM system resistance phenotype tests on respiratory specimens. Conditions: ID PSAE. Type of test: cell-based. The method, then: (§1) These specimens were prepped for introduction into the MADM system. The system performed quantitative ID for Staphylococcus aureus (STAU), Pseudomonas aeruginosa (PSAE), and Acinetobacter spp. (ABCC). Concurrent quantitative culture was performed on specimens. The MADM system performed resistance phenotype tests on STAU-containing specimens for cefoxitin (FOX) MRSA phenotyping and clindamycin (CLI) resistance. The system tested ABCC- and PSAE-containing specimens for amikacin (AN) and imipenem (IMP) resistance.
(§2) Specimen preparation used a brief procedure to release bacteria, reduce imaging background, and suspend bacteria in a low ionic strength buffer. […] The remaining 62 specimens were tested using the MADM system.
(§3) 20 μL samples of prepared specimen were pipetted into independent flowcell channels and a low-voltage electrical field was applied for 5 minutes. The electrical field concentrated bacteria onto a functional surface coating that immobilized the bacteria on the lower flowcell surface. Each flowcell channel received only one type of test reagent solution that contained a selective agent if required (only for channels used to test AB, sulbactam 32 μg/mL).
(§4) The instrument acquired images at 10-minutes intervals for 180 minutes, using 10 fields of view in each flowcell channel through a 20× objective. Imaging used darkfield illumination. Identification variables included response to selective agents (AB with sulbactam), cell morphology, growth morphology, and growth rate.
(§5) Identification algorithms applied to each individual immobilized bacterial cell. The system measured the amount of change in mass over time to compute growth rates. Identification consisted of computing and combining probability scores for morphology, response to selective media, and growth rates to produce a receiver operating characteristic curve (ROC) to derive classification criteria.

The subject of test [2] is Pseudomonas aeruginosa (PSAE). Type of test: cell-based. Conditions: ID PSAE, culture result.
Source text: (§6) A total of 281 de-identified remnant respiratory specimens were collected from hospital and commercial sources. The specimens included 25 endotracheal aspirates (ETA) of unknown age obtained from a specimen vendor. Also included were 230 mini-bronchoalveolar lavage (mini-BAL) and 26 ETA specimens obtained from Denver Health Medical Center (DHMC). DHMC specimens were 7-21 days old. AST results were available for all mini-BAL specimens but not for ETA. Accompanying reports also included semi-quantitative ID used to select 92 bacteria-positive specimens for analysis using the MADM system. Targets included Pseudomonas aeruginosa, Acinetobacter baumannii complex, and Staphylococcus aureus. Controls used standard culturing methods (Cx).
as §1

The subject of test [3] is Acinetobacter spp. (ABCC). Kind of test: MADM system resistance phenotype tests on respiratory specimens. The test is classed as cell-based, Acinetobacter sp. To be noted: ABCC-positive specimen (specimen name not given). The method, then: as §1, §2, §3, §4, §5
Test [4] relates to Acinetobacter spp. (ABCC). To be noted: ABCC-positive specimen (specimen name not given); culture result.
Source text: as §6, §1

The subject of test [5] is E. coli. Kind of test: Membrane potential indicator, red:green fluorescence ratio. Type of test: cell-based. To be noted: O/N refrigerator stock vs CCCP-treated E. coli. An excerpt:
(§7) Physiologic indicators of active bacteria include indicators of growth, responsiveness to external stimulus, transcription, translation, energy dependent activity, enzyme activity, and an intact permeability barrier. The indicators tested experimentally were grouped according to the following functional categories of physiologic states to which they are responsive, which included indicators of respiratory and metabolic activity, and membrane integrity.
(§8) Active bacterial cells maintain a proton gradient across their cell membranes, creating a membrane potential that may be measured using fluorescent dyes. However, the dyes used in this study to evaluate membrane potential are toxic to bacteria and can only be used as an endpoint assay.
DiOC2(3) (Molecular Probes) is a dye that fluoresces in the red channel when it is highly concentrated and self-associates in cells with an intact membrane potential. […] The red:green fluorescence ratio is used to normalize the fluorescence results of cells with differing sizes. Carbonylcyanide-m-chlorophenylhydrazone (CCCP) is a proton ionophore that disrupts the proton gradient and was used to treat E. coli cells in an experimental sample that was compared to an untreated overnight refrigerator stock.

A further test has as its system Enteric. In words: MADM (BACcel) phenotype/sensitivity by growth analysis, surveillance mini-BAL. Type of test: cell-based. To be noted: Spec# 005-D7, BACcel ID Enteric, 1.26 × 10^5 CFU/ml. The method, then:
(§9) Adult MICU patients with identified surrogate were included within 72 hours of intubation and if anticipated to require MV for >48 h. Moribund state or pregnancy were exclusions. Surveillance mini-BAL (Combicath, Plastimed) was performed on Day 1, 3, 5, 7 and 10 of MV. Samples were split and processed for both a) routine respiratory quantitative microbiological culture and sensitivity assays (>48 h result availability) and b) rapid (<8 hour) flowcell/surface-capture assays using the MADM system. Viable microorganisms were identified using growth analysis enhanced by a focused VAP antibody panel (S. aureus, P. aeruginosa, A. baumannii). Untypable organisms were also reported. Sensitivity was assessed using growth analysis. Attending physicians were blinded to MADM system results.
BAL sample were prepared, removing debris and separating microorganisms from other sample material. Sample microorganisms were introduced into a multichannel fluidic cassette as described elsewhere herein. […]
The automated digital microscopy system was used to perform darkfield imaging of 10 fields of view every 10 minutes for 180 minutes in each flowcell channel. […] Quantitation was performed by counting identified microorganisms and computing original specimen CFU/mL.

The next test relates to Steno. Described as above. Type of test: cell-based, S. maltophilia. The procedure: as §9
(§10) BAL sample were prepared, removing debris and separating microorganisms from other sample material. Sample microorganisms were introduced into a multichannel fluidic cassette as described elsewhere herein. Bacteria were concentrated and retained on the lower surface of all flowcells using low-voltage electrical field (5 min) Antibody labeling of bacteria in flowcells was used to aid identification.
(§11) The automated digital microscopy system was used to perform darkfield imaging of 10 fields of view every 10 minutes for 180 minutes in each flowcell channel. Initial epifluorescence imaging was also performed for antibody detection. […] Identification consisted of probability scores based on microorganism morphology and growth rates. Antibody labeling identification data was also incorporated. Observed microorganisms were then classified as STAU, PSAE, or non-target. Antibiotic responses were used to aid identification when appropriate. Quantitation was performed by counting identified microorganisms and computing original specimen CFU/mL.

Test [6] relates to E. coli. Kind of test: Respiratory/metabolic activity indicator labeling (2-NBDG uptake). Type of test: cell-based. To be noted: overnight refrigerator stock culture; approximately 1 min of exposure to 1 μM.
Source text: as §7
(§12) 2-NBDG (Molecular Probes) is a fluorescent derivative (green channel) of D-glucose that is internalized by active bacteria.

Another test relates to H. influenzae. Described as above. Conditions: overnight refrigerator culture, viability independently verified. Type of test: cell-based.
Source text: as §7, §12

Another test deals with K. pneumoniae. The description is as above. The test is classed as cell-based. Conditions: overnight refrigerator stock culture; approximately 1 min of exposure to 1 μM.
Source text: as §7, §12

The test system of the next test is S. aureus. The test is described as above. The test is classed as cell-based. To be noted: overnight refrigerator culture, viability independently verified.
Source text: as §7, §12

The test system of the next test is S. maltophilia. The test is described as above. Conditions: overnight refrigerator culture; negative control (does not metabolize glucose). The test is classed as cell-based.
Source text: as §7, §12

The test system of test [7] is E. coli. Kind of test: Membrane potential indicator staining. Type of test: cell-based. Conditions: 10 µg/ml DiBAC4(3), 15 min, room temp.
Source text: as §7, §8
DiBAC4(3) (Molecular Probes) is an anionic dye that enters depolarized cells (i.e., cells lacking a membrane potential) and fluoresces in the […] channel when it binds to intracellular proteins or membranes. Using this indicator, 18.5% of an overnight refrigerator stock (control) and 95% of heat-killed E. coli stained with 10 µg/ml DiBAC4(3) after a 15 min incubation period at room temp.

Test [8] has as its system Staphylococcus aureus (STAU). Kind of test: MADM system resistance phenotype tests on respiratory specimens. Type of test: cell-based. To be noted: for resistance phenotype result (S/R), MADM: ID STAU, MRSA by FOX. The method, then: (ABCC). Concurrent quantitative culture was performed on specimens.
Specimen preparation used a brief procedure to release bacteria, reduce imaging background, and suspend bacteria in a low ionic strength buffer. […] We rejected 10 samples with heavy interfering background when dilution to OD600=0.3 yielded organism counts inadequate for analysis. We rejected 7 samples for other technical deficiencies. The remaining 62 specimens were tested using the MADM system.
as §3, §4, §5

A further test has as its system STAU. Kind of test: MADM (BACcel) phenotype/sensitivity by growth analysis, surveillance mini-BAL. The test is classed as cell-based, S. aureus. To be noted: Spec# 008-D7, BACcel ID STAU, 1.11 × 10^6 CFU/ml. The procedure:
as §9, §10, §11

Test [9] relates to Staphylococcus aureus (SA). Kind of test: Same-day blood culture MADM drug resistance phenotyping. The test is classed as cell-based. To be noted: SA in 6 μg/mL FOX, dark-field images over 3 hours (FIG. 10B). The method, then: The MADM system used a custom microscope and pipetting robot, plus an evaluation system, as described herein. 32-channel disposable cassettes (FIG. 4A) enabled live microorganism immobilization for microscopy and fluid exchanges for different test agents. The microscope scanned 40 image fields in each flowcell channel, each channel having organisms extracted from about 3.5 μL of prepared inoculum.
Simulated blood specimens consisted of isolates spiked into 10 mL each of 29 aliquots of two short-fill CPD blood bank bags to make approximately 5 CFU/mL of bacterial target species, confirmed by quantitative culture. Spiked isolates included 14 Staphylococcus aureus (SA), 3 Pseudomonas aeruginosa (PA), or 12 non-target Gram-negative bacilli species. Dilution of each sample with 30 mL of modified TSB culture medium promoted growth. 20 additional control aliquots contained no spikes. 4-hour incubation at 35° C., followed with brief spin cleanup, ended with pellet resuspension into an electrokinetic buffer to make 1 mL samples for MADM system analysis. 20 μL sample aliquots were then pipetted into 14 cassette flowcells. A 5-minute low-voltage electrokinetic capture was performed to concentrate microorganisms on the lower surface of each flowcell where a capture coating immobilized the bacterial cells. […]

[10] abbreviates: Spec# 006-D1, BACcel ID Steno, 7.68 × 10^5 CFU/ml.
Setting [11] is: Spec# 006-D3, BACcel ID Steno, 1.60 × 10^4 CFU/ml.

Turning to `C[C@@H](O)[C@H]1C(=O)N2C(C(=O)O)=C(SCCN=CN)C[C@H]12` [IMP, imipenem], the “resistance phenotype result (S/R), MADM” value in test [1] (specimen DH 430, Mini-BAL) is recorded as “S”; in test [1] (specimen DH 554, BAL) it was “S”; in test [1] (specimen DH 641, Mini-BAL) it was “S”; in test [3] it was “S”. Besides, the “resistance phenotype result (S/R), Cx” value in test [2] (specimen DH 430, Mini-BAL) was “S”; in [2] (specimen DH 554, BAL) it was “S”; in [2] (specimen DH 641, Mini-BAL), “S”; in test [4], “S”.
Turning to `CCN1/C(=C/C=C/c2oc3ccccc3[n+]2CC)Oc2ccccc21.[I-]` [DiOC2(3)], the “red:green fluorescence ratios” value with E. coli [5] is listed as “No significant difference”.
Consider `CC(C)(O/N=C(\C(=O)N[C@@H]1C(=O)N2C(C(=O)[O-])=C(C[n+]3ccccc3)CS[C@H]12)c1csc(N)n1)C(=O)O` [CAZ, ceftazidime], for which the “Phenotype, sensitivity (growth in antibiotic)” value in the test on Enteric is listed as “all growth”; with Steno (setting [10]), “growth, TZP-”; with Steno (setting [11]), “growth, TZP-”.
For `O=[N+]([O-])c1ccc(N[C@H]2C(O)O[C@H](CO)[C@@H](O)[C@@H]2O)c2nonc12` (stereo partly shown) [2-NBDG], the fluorescent labeling entry was “fluorescently labeled” with E. coli [6]; “did not fluoresce” in the test on H. influenzae; “fluorescently labeled” in the test with K. pneumoniae; “did not fluoresce” with S. aureus; “did not fluoresce” with S. maltophilia.
As to `CCCCN1C(=O)C(=CC=Cc2c(O)n(CCCC)c(=O)n(CCCC)c2=O)C(=O)N(CCCC)C1=O` [DiBAC4(3)], the cells stained in the test on E. coli [7] (heat-killed E. coli) was 95%; in the test with E. coli [7] (overnight refrigerator stock (control) E. coli), 18.5%.
As for `CO[C@@]1(NC(=O)Cc2cccs2)C(=O)N2C(C(=O)O)=C(COC(N)=O)CS[C@@H]21` [FOX, cefoxitin], the “resistance phenotype result (S/R), MADM” value was “R” in test [8] (specimen DH 425, Mini-BAL); “S” in test [8] (specimen DH 427, Mini-BAL); “R” in test [8] (specimen DH 439, Mini-BAL); “S” in test [8] (specimen DH 440, BAL); “S” in [8] (specimen DH 457, BAL); “S” in test [8] (specimen DH 485, BAL). In addition, the “resistance phenotype result (S/R), MADM” value was “S” in test [8] (specimen DH 509, BAL); “S” in test [8] (specimen DH 514, Mini-BAL); “S” in test [8] (specimen DH 543, BAL); “S” in [8] (specimen DH 550, BAL); “S” in test [8] (specimen DH 556, Mini-BAL); “R” in test [8] (specimen T12, ETA). Also, the “MRSA/MSSA call by FOX in the MADM system” value in test [8] (the one discordant STAU sample) is “MRSA”. The “Phenotype, sensitivity (growth in antibiotic)” value is “all growth” with Enteric; “growth, TZP-” in the test on Steno (setting [10]); “growth, TZP-” with Steno (setting [11]). The “Phenotype, sensitivity” value in the test with STAU is on record as “FOX - R”. Further, in test [9], the “clone growth in drug” value is “growth indicating MRSA phenotype”.

The record behind these values is patent US20160010138A1, “RAPID DETERMINATION OF MICROBIAL DROWTH AND ANTIMICROBIAL SUSEPTABILITY” (priority 2013, published 2016).
